{
  "source": "patent US8772499B2",
  "about": "“TRPV3 modulators” (AbbVie Inc., priority 2011, dated 2014)",
  "key": {"human TRPV3": {"biological_target": "T1, human TRPV3 (Homo sapiens, UniProt Q8NET8)", "T1 construct": "expressed in transfected cells", "T1 sequence (Q8NET8 1-790)": "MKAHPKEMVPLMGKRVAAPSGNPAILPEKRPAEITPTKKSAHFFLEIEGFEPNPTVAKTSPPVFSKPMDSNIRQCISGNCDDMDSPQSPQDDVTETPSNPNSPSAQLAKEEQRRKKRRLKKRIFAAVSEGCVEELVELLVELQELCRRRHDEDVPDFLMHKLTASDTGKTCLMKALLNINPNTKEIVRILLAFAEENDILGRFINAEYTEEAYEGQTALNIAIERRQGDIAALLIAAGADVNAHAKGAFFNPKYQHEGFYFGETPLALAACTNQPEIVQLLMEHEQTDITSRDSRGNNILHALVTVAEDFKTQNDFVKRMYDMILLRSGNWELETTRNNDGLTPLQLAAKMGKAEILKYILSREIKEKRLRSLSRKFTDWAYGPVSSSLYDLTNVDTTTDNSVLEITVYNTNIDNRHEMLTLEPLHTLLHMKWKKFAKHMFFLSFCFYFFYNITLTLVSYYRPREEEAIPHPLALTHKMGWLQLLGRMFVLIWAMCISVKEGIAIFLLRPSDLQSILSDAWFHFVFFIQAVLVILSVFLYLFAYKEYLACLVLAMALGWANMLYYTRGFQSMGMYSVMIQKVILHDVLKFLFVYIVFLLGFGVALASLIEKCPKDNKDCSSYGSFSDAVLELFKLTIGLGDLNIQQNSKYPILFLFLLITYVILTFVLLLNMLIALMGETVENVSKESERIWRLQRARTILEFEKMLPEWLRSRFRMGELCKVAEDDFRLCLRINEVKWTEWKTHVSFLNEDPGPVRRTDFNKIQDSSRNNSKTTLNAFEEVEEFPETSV", "experiment": "In vitro antagonism of recombinant human TRPV3 activation (FLIPR Tetra calcium assay)", "assay_type": "cell-based", "settings": "HEK293 cells stably expressing human TRPV3, agonist 2-APB at 80 μM", "how_it_was_run": "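Calcium flux read over a 10 min run: compound added at 10 s to Calcium-4-loaded human TRPV3-HEK293 cells, agonist 2-APB (80 μM, its EC80) after 3 min. IC50 derived from peak-minus-baseline signal as percentage of uninhibited 2-APB response, typically averaged over at least two runs.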"}, "[1]": {"experiment": "In vitro human microsomal stability assay", "assay_type": "in vitro ADME", "how_it_was_run": "(§1)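 Compound incubated at 37 °C with NADPH-supplemented liver microsomes, either human or from Sprague-Dawley rat, to assess metabolic stability.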"}, "[2]": {"experiment": "In vitro rat microsomal stability assay", "assay_type": "in vitro ADME, rat (Sprague-Dawley)", "how_it_was_run": "as §1"}, "[3]": {"settings": "actual measured value shown parenthetically, in most cases average of at least two runs, read-out: IC50"}, "[4]": {"settings": "reported range, read-out: IC50 (range class)"}, "[5]": {"settings": "human, microsomes, 0.5 h, 0.5 μM, pH 7.4"}, "[6]": {"settings": "Sprague-Dawley, rat, microsomes, 0.5 h, 0.5 μM, pH 7.4"}},
  "note": "Read-outs that look alike come from different tables or passages of the source.",
  "data": [
    {"smiles": "OC1CC(c2ccc(C(F)(F)F)cc2)([C@@H](O)c2ccccn2)C1", "note": "(mixture of isomers) [Example 199, 3-[(R)-hydroxy(pyridin-2-yl)methyl]-3-[4-(trifluoromethyl)phenyl]-cyclobutanol]", "values": [
      {"measurement": "IC50", "setting": "human TRPV3; [3]", "value": "> 20000", "unit": "nM"},
      {"measurement": "IC50", "setting": "human TRPV3; [4]", "value": "> 20000", "unit": "nM"},
      {"measurement": "HUMAN MICROSOMAL STABILITY (% REMAINING AFTER 30 MINUTES)", "setting": "[1]; [5]", "value": ">85", "unit": "%"},
      {"measurement": "RAT MICROSOMAL STABILITY (% REMAINING AFTER 30 MINUTES)", "setting": "[2]; [6]", "value": ">85", "unit": "%"}
    ]},
    {"smiles": "OC(c1ccccn1)C1(c2cccc(OC(F)(F)F)c2)CCCO1", "note": "(single isomer, unassigned) [Example 93, (syn)-pyridin-2-yl{2-[3-(trifluoromethoxy)phenyl]tetrahydrofuran-2-yl}methanol]", "values": [
      {"measurement": "IC50", "setting": "human TRPV3; [3]", "value": 590, "unit": "nM"},
      {"measurement": "HUMAN MICROSOMAL STABILITY (% REMAINING AFTER 30 MINUTES)", "setting": "[1]; [5]", "value": 12, "unit": "%"},
      {"measurement": "RAT MICROSOMAL STABILITY (% REMAINING AFTER 30 MINUTES)", "setting": "[2]; [6]", "value": 0.33, "unit": "%"}
    ]},
    {"smiles": "O[C@H](c1ccccn1)C1(c2cc(C(F)(F)F)ccn2)CCC1", "note": "[Example 123, (S)-pyridin-2-yl{1-[4-(trifluoromethyl)pyridin-2-yl]cyclobutyl}methanol]", "values": [
      {"measurement": "IC50", "setting": "human TRPV3; [3]", "value": 390, "unit": "nM"},
      {"measurement": "HUMAN MICROSOMAL STABILITY (% REMAINING AFTER 30 MINUTES)", "setting": "[1]; [5]", "value": 21, "unit": "%"},
      {"measurement": "RAT MICROSOMAL STABILITY (% REMAINING AFTER 30 MINUTES)", "setting": "[2]; [6]", "value": 11, "unit": "%"}
    ]},
    {"smiles": "OC(c1ccccn1)C1(c2nc3ccccc3s2)CCC1", "note": "(centres unmarked) [Example 266, [1-(1,3-benzothiazol-2-yl)cyclobutyl](pyridin-2-yl)methanol]", "values": [
      {"measurement": "IC50", "setting": "human TRPV3; [3]", "value": 2310, "unit": "nM"},
      {"measurement": "HUMAN MICROSOMAL STABILITY (% REMAINING AFTER 30 MINUTES)", "setting": "[1]; [5]", "value": 46, "unit": "%"},
      {"measurement": "RAT MICROSOMAL STABILITY (% REMAINING AFTER 30 MINUTES)", "setting": "[2]; [6]", "value": 0.14, "unit": "%"}
    ]},
    {"smiles": "OC(c1ccccn1)C1(c2cccc(OC(F)(F)F)c2)CCOCC1", "note": "(centres unmarked) [Example 66, pyridin-2-yl{4-[3-(trifluoromethoxy)phenyl]tetrahydro-2H-pyran-4-yl}-methanol]", "values": [
      {"measurement": "IC50", "setting": "human TRPV3; [3]", "value": 1520, "unit": "nM"},
      {"measurement": "HUMAN MICROSOMAL STABILITY (% REMAINING AFTER 30 MINUTES)", "setting": "[1]; [5]", "value": 31, "unit": "%"},
      {"measurement": "RAT MICROSOMAL STABILITY (% REMAINING AFTER 30 MINUTES)", "setting": "[2]; [6]", "value": 23, "unit": "%"}
    ]},
    {"smiles": "COC1CC(c2ccc(Cl)c(Cl)c2)([C@H](O)c2ccccn2)C1", "note": "(mixture of isomers) [Example 151, (S)-[1-(3,4-dichlorophenyl)-3-methoxycyclobutyl](pyridin-2-yl)methanol]", "values": [
      {"measurement": "IC50", "setting": "human TRPV3; [3]", "value": 1240, "unit": "nM"},
      {"measurement": "HUMAN MICROSOMAL STABILITY (% REMAINING AFTER 30 MINUTES)", "setting": "[1]; [5]", "value": 32, "unit": "%"},
      {"measurement": "RAT MICROSOMAL STABILITY (% REMAINING AFTER 30 MINUTES)", "setting": "[2]; [6]", "value": "<0.01", "unit": "%"}
    ]},
    {"smiles": "OC(c1ccccn1)C1(C2(O)CCOC2)CCC1", "note": "(centres unmarked) [Example 246, 3-{1-[hydroxy(pyridin-2-yl)methyl]cyclobutyl}tetrahydrofuran-3-ol]", "values": [
      {"measurement": "IC50", "setting": "human TRPV3; [3]", "value": "> 20000", "unit": "nM"},
      {"measurement": "IC50", "setting": "human TRPV3; [4]", "value": "> 20000", "unit": "nM"},
      {"measurement": "HUMAN MICROSOMAL STABILITY (% REMAINING AFTER 30 MINUTES)", "setting": "[1]; [5]", "value": 71, "unit": "%"},
      {"measurement": "RAT MICROSOMAL STABILITY (% REMAINING AFTER 30 MINUTES)", "setting": "[2]; [6]", "value": 59, "unit": "%"}
    ]},
    {"smiles": "O=C1CC(c2ccc(F)c(Cl)c2)(C(O)c2ccccn2)C1", "note": "(centres unmarked) [Example 258, 3-(3-chloro-4-fluorophenyl)-3-[hydroxy(pyridin-2-yl)methyl]cyclobutanone]", "values": [
      {"measurement": "IC50", "setting": "human TRPV3; [3]", "value": 11000, "unit": "nM"},
      {"measurement": "HUMAN MICROSOMAL STABILITY (% REMAINING AFTER 30 MINUTES)", "setting": "[1]; [5]", "value": 70, "unit": "%"},
      {"measurement": "RAT MICROSOMAL STABILITY (% REMAINING AFTER 30 MINUTES)", "setting": "[2]; [6]", "value": 53, "unit": "%"}
    ]},
    {"smiles": "N[C@@H]1CCC[C@@H]1[C@@H](O)C1(c2ccc(Cl)c(Cl)c2)CCC1", "note": "[Example 216, (R)-[(1S,2R)-2-aminocyclopentyl][1-(3,4-dichlorophenyl)cyclobutyl]-methanol]", "values": [
      {"measurement": "IC50", "setting": "human TRPV3; [3]", "value": 2260, "unit": "nM"},
      {"measurement": "HUMAN MICROSOMAL STABILITY (% REMAINING AFTER 30 MINUTES)", "setting": "[1]; [5]", "value": ">85", "unit": "%"},
      {"measurement": "RAT MICROSOMAL STABILITY (% REMAINING AFTER 30 MINUTES)", "setting": "[2]; [6]", "value": 41, "unit": "%"}
    ]},
    {"smiles": "OC(c1ccccn1)C1(c2cccc(OC(F)(F)F)c2)CCNCC1", "note": "(centres unmarked) [Example 148, pyridin-2-yl{4-[3-(trifluoromethoxy)phenyl]piperidin-4-yl}methanol]", "values": [
      {"measurement": "IC50", "setting": "human TRPV3; [3]", "value": 3100, "unit": "nM"},
      {"measurement": "HUMAN MICROSOMAL STABILITY (% REMAINING AFTER 30 MINUTES)", "setting": "[1]; human liver microsomes, 0.5 μM substrate, 0.25 mg/mL microsomal protein, pH 7.4, 37° C., NADPH, 30 minutes", "value": ">85", "unit": "%"},
      {"measurement": "RAT MICROSOMAL STABILITY (% REMAINING AFTER 30 MINUTES)", "setting": "[2]; rat liver microsomes (Sprague-Dawley), 0.5 μM substrate, 0.25 mg/mL microsomal protein, pH 7.4, 37° C., NADPH, 30 minutes", "value": 53, "unit": "%"}
    ]},
    {"smiles": "O[C@H](c1ncccn1)C1(c2ccc(C(F)(F)F)cc2)CCC1", "note": "[Example 41, (S)-pyrimidin-2-yl{1-[4-(trifluoromethyl)phenyl]cyclobutyl}methanol]", "values": [
      {"measurement": "IC50", "setting": "human TRPV3; [3]", "value": "> 10000", "unit": "nM"},
      {"measurement": "HUMAN MICROSOMAL STABILITY (% REMAINING AFTER 30 MINUTES)", "setting": "[1]; [5]", "value": 54, "unit": "%"},
      {"measurement": "RAT MICROSOMAL STABILITY (% REMAINING AFTER 30 MINUTES)", "setting": "[2]; [6]", "value": 21, "unit": "%"}
    ]}
  ]
}
